Patent US20250062040A1, “COMPUTER-BASED SYSTEMS FOR ACQUIRING AND ANALYZING OBS[…] DATA” (priority 2021, published 2025)

What was measured:
[1] = eye temperature by automated thermographic system of behavioral platform; type: in vivo, mice; conditions: 1 mg/kg intraperitoneally, tested after 15 minutes, 45-minute session, vs vehicle, FIG. 37
Description: In some embodiments, with regard to image calibration, in an experimental session, actual Peltier temperatures may be logged and saved along with the thermal camera video. The logged Peltier temperatures in Celsius can be paired to the optical density (OD) levels measured at the two Peltier ROIs in each corresponding frame, so that a linear calibration curve can be used to convert the OD of measured eye ROIs to degrees Celsius.
In some embodiments, the subject body, such as a mouse, can be segmented based on the optical density distribution on each frame. The contour of the mouse can be masked by finding the largest eight-connected objects in the binarized image as shown in FIG. 36. […] The size of the eye region relative to the mask and shape properties such as ‘Eccentricity’ (ratio of the distance between the foci of the ellipse and its major axis length) and ‘Solidity’ (proportion of the pixels in the convex hull that are also in the region, computed as Area/ConvexArea) can be measured to filter out false positives, when those parameters may be outside of the range learned from manually annotated ground truth examples.
In some embodiments, with regard to feature extraction, the average OD of automatically detected eye ROIs can be converted to Celsius based on the calibration curve. […]

[2] = core temperature by rectal temperature measurement; type: in vivo, mice; conditions: 1 mg/kg intraperitoneally; before injection vs just prior to thermal camera recording
Method: In some embodiments, a validation experiment can test whether this method may effectively detect changes in body temperature induced by drugs from thermal videos. In one such test, two groups of mice can be treated with chlorpromazine 1 mg/kg (n=13) or vehicle (n=14) intraperitoneally, and tested after 15 minutes under the thermal camera system. An average change of 0.9 degree Celsius in core temperature was observed by measuring rectal temperature of animals before injection and just prior to their thermal camera recording.

[3] = SmartCube / behavioral platform total activity and Class signature; type: in vivo
Description: In some embodiments, one or more techniques described herein may quantify at least one activity score that may be quantified based on a discriminability score between at least two datasets, where the discriminability score may refer to an accuracy of a classifier, or a quantity derived therefrom. At least one dataset is a control group. In some embodiments, one or more techniques described herein may quantify at least one similarity value, which is the complement of the at least one activity value, where at least two groups are compared.
In some embodiments, one or more techniques described herein may calculate the activity score between the two groups using, for example, without limitation, a binary machine learning classifier. In some embodiments, a discriminability score of the at least two groups, as assessed by the classifier, may be used as the at least one activity score, representing how phenotypically different the two groups are. For example, the at least two groups may refer to a treatment group and a vehicle group associated with the at least two datasets.
In some embodiments, one or more techniques described herein may utilize a machine learning algorithm to perform the following steps: obtaining a plurality of subsamples, where a number, k, of iterations of the plurality of subsamples of a larger group match sample size n of a smaller group. […]

[4] = psychedelic-related behaviors (HTR, ESH, ELO) in behavioral platform videos; type: in vivo, mice
Description: FIG. 71 illustrates a response curve for R-(−)-4-iodo-2,5-dimethoxyamphetamine (DOI), showing anxiolytic, another therapeutic signal, and the head twitch response (HTR) in accordance with one or more embodiments of the present disclosure. FIG. 71 represents a signature of DOI in a behavioral platform, where multiple classes can be collapsed into a few classes of interest. For example, multiple classes can be collapsed into five classes of interest for simplicity.
In some embodiments, the first step may be to generate a collection of ground-truth examples by manually identifying features corresponding to behaviors of interest (e.g., using a labelling software or platform to add labels identifying such features). Each experimental session can be recorded in terms of precise start and end frame which can set the predefined duration of the experimental session. For manual identification purposes, the system may use a top camera view, at a 50% slower viewing speed, although other angles from the other cameras and other sensors such as piezoelectric and thermal sensors may also be used, and the resulting data integrated. Class analysis (e.g., FIG. 71), on the other hand, may include data acquired from all sensors of a behavioral platform.
The disclosed embodiments can extract behavioral features corresponding to exemplary behaviors. The disclosed embodiments are not limited to any particular implementation of these features. In some embodiments, a behavioral feature can be implemented as a time-stamped indication that a behavior occurred at that time, or a Boolean value in a time series indicating the occurrence of a behavior. In some embodiments, a training dataset including observational data and corresponding, manually identified features can be used to train the machine learning classifier.
FIG. 76 illustrates graphs illustrating a quantification of psychedelic-related behaviors detected in behavioral platform videos: ear scratch with hind paw (ESH), head twitch response (HTR), and elongation-contraction (ELO) for LSD and DOI at two doses in accordance with one or more embodiments of the present disclosure. FIG. 76 indicates a number of occurrences of HTRs, ESH, and ELOs, in behavioral platform videos of mice treated with DOI, LSD or vehicle, in triplicates, were recorded during the periods of rest for a total of 12 minutes for each subject.

[5] = SmartCube diagonal index (DD) similarity ranking and psychedelic profile; type: in vivo; conditions: ranked among 90 reference drugs
Description: The similarity score for each of the dose-dose pairs of the T and R drugs was computed and used to calculate the diagonal index for each T-R drug pair or DDTiRj. For each Ti drug, the Rj drugs were then ranked by the corresponding DDTiRj.

Male SD rats = assay: rat forced swim test, long lasting antidepressant-like effects; type: in vivo; conditions: vs vehicle group, p<0.05; IP 24 H prior to testing; ketamine 10 mg/kg, Enantiomer I2 30 mg/kg
Method: Male SD rats from Envigo (IN) were used in the study. Ketamine (10 mg/kg) was dissolved in saline and administered IP at a dose volume of 1 ml/kg 24 H prior testing. Enantiomer I2 was dissolved in PBS and administered IP at a dose volume of 1 ml/kg 24 H prior to testing. Videos were scored by an observer blinded to the treatment and frequency of immobility, climbing and swimming were measured. Data were analyzed by ANOVA followed by post hoc analysis where appropriate.

[6] = pEEG spectral power signature; type: in vivo; conditions: 2-h post-injection, normalized against baseline, different doses, FIG. 21
Method: In some embodiments, pEEG may be recorded 1 hour before drug administration and for 2 hours after drug administration from all recorded brain regions simultaneously. To maximize the clinical translatability of a pEEG preclinical database, the frontal cortex and parietal cortex can be selected without limitation. ECoG EEG from these electrodes may be shown to offer direct rodent-to-human translation. Additionally, the hippocampus and striatum can be targeted for indwelling local field potential (LFP) recordings to investigate pharmacological responses on brain regions known to be innervated by different neurotransmitter systems.
In some embodiments, pEEG data consumed by a behavioral platform classier or other machine learning model can be processed first to remove artifacts. […] The average standard frequency bands are shown in Table IV listing the analyzed standard frequency bands. […]
In some embodiments, a normalization against the baseline pre-drug may be convenient, although other types of normalization may be used without limitation. pEEG and accelerometer spectrums can be normalized to the corresponding mean value x_mean during the pre-dosing interval [0, 1 hour](baseline): x_norm=(x−x_mean)/x_mean. For both pEEG and accelerometer data, the post-dosing features (obtained during the 2-hour post-dosing period) can be expressed as percent change from pre-dose baseline. […]

[7] = periods of rest, total 12 minutes per subject, vs vehicle, two doses, FIG. 76

SMILES: CN(C)CCCN1c2ccccc2Sc2ccc(Cl)cc21 [chlorpromazine]
- estimated eye temperature [1]: decrease of estimated eye temperature
- average change in core temperature (rectal temperature) [2]: 0.9 degree Celsius

SMILES: COc1cc(C[C@@H](C)N)c(OC)cc1I [DOI, R-(−)-4-iodo-2,5-dimethoxyamphetamine]
- class signal of behavioral platform classifier ([3]; FIG. 71, classes collapsed into five classes): predominant anxiolytic therapeutic signal
- head twitch response (HTR) dose-response ([4]; FIG. 71, two doses): high at both doses
- number of occurrences of HTRs [4, 7]: most robust increase
- number of occurrences of ear scratches (ESH) [4, 7]: most robust increase

SMILES: CN1C(=O)CN=C(c2ccccc2)c2cc(Cl)ccc21 [diazepam]
- rank of diagonal index DDTT (similarity of a second run to a previous run of the same drug) [5]: third out of 90

SMILES: CNC1(c2ccccc2Cl)CCCCC1=O (centres unmarked) [ketamine]
- frequency of immobility in the forced swim (Male SD rats): reduced immobility
- frequency of swimming in the forced swim (Male SD rats): increased swimming
- change in pEEG power of high frequencies (gamma) [6]: dose-dependent short-term increase

SMILES: CCN(CC)C(=O)[C@@H]1C=C2c3cccc4[nH]cc(c34)C[C@H]2N(C)C1 [LSD, lysergic acid diethylamide]
- total activity as a function of dose ([3]; calculated against vehicle control, activity rescaled 0% to 100%, threshold 70%, FIG. 64): only the 3 mg/kg and 5 mg/kg being different from vehicle in a statistically significant manner
- rank of diagonal index DDTT (similarity of a second run to a previous run of the same drug) [5]: very high
- number of occurrences of ear scratches (ESH) [4, 7]: did not result in occurrences of ear scratches
- number of occurrences of elongation-contraction (ELO) [4, 7]: significant increase in the number of ELOs
